Assay results taken from patent publication US20250263457A1, “Pharmaceutical Composition for Preventing and Treating Liver Disease Comprising Novel Peptide” (Pusan National University Industry-University Cooperation …, priority 2024, published 2025).

Tested on: alcohol-related liver disease mouse model
Assay: Triglyceride accumulation in liver tissue of alcohol-related liver disease mouse model
Type: in vivo, C57BL/6 male mice
Conditions: 3.3 μg/kg i.p. every other day for three weeks
From the text: To prepare alcohol-related liver disease mice, 8-week-old C57BL/6 male mice were fed with a Lieber DeCarli liquid diet (Dyets, 710260) containing 5% EtOH for 9 weeks, and then injected intraperitoneally with a vehicle (PBS) every other day along with feeding liquid diet for additional 3 weeks. As a control group for the EtOH diet, mice fed with a pair Lieber DeCarli liquid diet (Dyets, 710027) having the same total calories as the EtOH diet were used (FIG. 4A).
Triglycerides in the liver tissue obtained by the method of Example 5.2 were measured using the following method.
In addition, the accumulation of triglycerides in the liver tissue was confirmed using Oil red O staining.
Specifically, the liver tissue extracted from the mice was embedded in OCT and frozen-stored at −80° C. The liver tissue embedded in OCT was cut into 6 μm-thick sections to produce tissue section slides and then fixed by treating 4% paraformaldehyde. The tissue section slides were washed with distilled water and treated with 100% propylene glycol ([…], Sigma-Aldrich), and triglycerides were stained with Oil Red O (Sigma-Aldrich). After staining, the section slides were washed with 60% PEG, and the nuclei were counterstained with hematoxylin. The liver tissue section slides produced as described above were observed under a microscope to confirm the accumulation of triglycerides in the liver tissue. […]

## peptide YJ: TSG-6 fragment: core domain RSGKYKLTYAEAKA plus C-terminal extension VCEFEGGHLATYKQLEAARKIGFHVCAAGWMAK (SEQ ID NO: 9); TSG-6 mimetic (RSGKYKLTYAEAKAVCEFEGGHLATYKQLEAARKIGFHVCAAGWMAK; peptide 4)
EtOH diet group, vs vehicle (FIG. 6D)
  amount of triglycerides in the liver tissue: significantly reduced
H&E staining (FIG. 6E)
  size and number of lipid droplet in the liver tissue: significantly reduced
